For one data set, the system named is P388. Nature of the data set: Cytotoxicity against mouse P388 cells. The class given is functional, cell-based.
The subject of data set [1] is Trichophyton mentagrophytes. Nature of the data set: Antimicrobial activity against Trichophyton mentagrophytes at 60 ug/disk. The class given is functional, organism-based.
Data set [2] can be described thus: Cytotoxicity against african green monkey BSC1 cells at 10 ug. The class given is cell-based. The following applies: chlorocebus aethiops, bsc-1.
The next data set deals with Escherichia coli. The experiment in a line: Antimicrobial activity against Escherichia coli at 60 ug/disk. It counts as functional, organism-based.
The subject of the next data set is Candida albicans. The experiment in a line: Antimicrobial activity against Candida albicans at 60 ug/disk. It counts as functional, organism-based.
The next data set relates to Poliovirus 1. The experiment in a line: Antiviral activity against Poliovirus type 1 in african green monkey BSC1 cells assessed as inhibition of virus-induced cytopathic effect. As to conditions: BSC-1. It counts as functional, organism-based.
The test system of a further data set is Bacillus subtilis. The experiment in a line: Antimicrobial activity against Bacillus subtilis at 60 ug/disk. It counts as functional, organism-based.
For another data set, the system named is Pseudomonas aeruginosa. Nature of the data set: Antimicrobial activity against Pseudomonas aeruginosa at 60 ug/disk. The class given is functional, organism-based.
A further data set relates to Human alphaherpesvirus 1. Nature of the data set: Antiviral activity against HSV1 in african green monkey BSC1 cells assessed as inhibition of virus-induced cytopathic effect. The class given is functional, organism-based. The following applies: BSC-1. For orientation: Damage to the host cells serves as the signal in cytopathic effect assays.

≈ marks a conversion by molar mass, not a printed value. Calls of active or inactive are those of the source. The calls are words filed in the database; no cut-off is given here.

As usually defined, the IC50 is the concentration that inhibits the measured activity by half.

`CC(C)=CCC1=C(O)C(=O)c2ccccc2C1=O` [LAPACHOL] registered a half-inhibitory concentration (IC50) in the data set with P388 of 0.2 µg/mL (≈ 0.826 µM).

As to `CC(C)=CCC12OC1C(=O)c1ccccc1C2=O` (configuration not stated), the outcome (in data set [1]; in the data set with Candida albicans; with Bacillus subtilis) was Active. In data set [2], the outcome was Active. Moreover, the result with Escherichia coli, in the data set with Poliovirus 1, with Pseudomonas aeruginosa and in the data set on Human alphaherpesvirus 1 was inactive. Moreover, the IC50 with P388 was 0.8 µg/mL (≈ 3.3 µM).

With `CC(C)=CCC1(CC=C(C)C)CC(=O)c2ccccc2C1=O`, the IC50 with P388 was over 12.5 µg/mL.

Consider `COc1cc(CC=C(C)C)c(OC)c2ccccc12`, for which the IC50 in the data set with P388 is over 25 µg/mL.

Turning to `CC(C)=CCC1=CC(=O)c2ccccc2C1=O` [DEOXYLAPACHOL], the outcome (in data set [1]; in the data set on Candida albicans; with Bacillus subtilis) was Active. In addition, in data set [2], the result was Active. In addition, the result in the data set on Escherichia coli, with Poliovirus 1, with Pseudomonas aeruginosa and with Human alphaherpesvirus 1 was inactive. Moreover, 0.6 µg/mL (≈ 2.65 µM) corresponded to half-maximal inhibition in the data set with P388 (IC50).

For the molecule `COC1(OC)c2ccccc2C(=O)C2(CC=C(C)C)OC21` (racemic), in the data set with P388, the IC50 is over 12.5 µg/mL.

These data come from ChEMBL document CHEMBL1158967, “A cytotoxic and antifungal 1,4-naphthoquinone and related compounds from a New Zealand brown algae, Landsburgia quercifolia” (J Nat Prod, 1991).
